The values below come from the RepoRT retention time repository (doi:10.1016/j.chroma.2015.11.014).

The nature of the data set: RP, Agilent ZORBAX Eclipse Plus C18, 150 × 2.1 mm, 3.5 µm, 40 °C, 0.3 mL/min, estimated dead time 1.1 min; A: water + 0.1% formic acid; B: acetonitrile + 0.1% formic acid; gradient (min/%B) 0/2 1/2 2/20 16.5/98 22/98. Particulars: stereoisomer not certain.

On to `O=C([O-])CCCC[P+](c1ccccc1)(c1ccccc1)c1ccccc1`, for which the LC retention time was 7.21 min.

Regarding `CCOC(=O)C(C#N)=C(c1ccccc1)c1ccccc1`, the LC retention time is 13.6 min.

Consider `Nc1ccc(O)c(C(=O)O)c1`, for which the LC retention time is 2.18 min.

`COc1cc(-c2oc3cc(O)cc(O)c3c(=O)c2O)ccc1O`: the LC retention time was 9.42 min.

With `COP(=O)(NC(C)=O)SC` (stereo not given), the LC retention time was 4.5 min.

On to `CCCCCCCCCCC(C(=O)c1ccc(OC)c(OC)c1)[N+](C)(C)C` (stereo not given), for which the LC retention time was 10.9 min.

`CC12CCC(=O)C=C1CCC1C2C(=O)CC2(C)C1CCC2(O)C(=O)CO` (stereo not given): the LC retention time was 8.4 min.

For `CCN(C)C(=O)Oc1cccc(C(C)N(C)C)c1` (stereo not given), the LC retention time is 6.08 min.

On to `COc1cc(Cc2cnc(N)nc2N)cc(OC)c1OC`, for which the LC retention time is 5.11 min.

In the case of `COCCCOc1cc(CC(CC(N)C(O)CC(C(=O)NCC(C)(C)C(N)=O)C(C)C)C(C)C)ccc1OC` (stereo not given), the LC retention time was 8.2 min.

On to `COc1cc(C(=O)O)cc(OC)c1OC`, for which the LC retention time is 7.63 min.

As for `CCCC[P+](CCCC)(CCCC)CCCC`, the LC retention time was 9.65 min.

For the compound `Cn1cnc2nc[nH]c2c1=N`, the LC retention time was 2.36 min.

Turning to `Nc1ncnc2c1ncn2C1OC(CO)C(O)C1O` (stereo not given), the LC retention time was 3.2 min.

Consider `CC(C(=O)O)c1ccc(CC(C)(C)O)cc1` (stereo not given), for which the LC retention time is 8.21 min.

`CCCCCCCCOS(=O)(=O)O`: the LC retention time is 9.59 min.

As for `Nc1ccc(S(=O)(=O)Nc2ncccn2)cc1`, the LC retention time is 5.24 min.

Regarding `CC12CCC3C4CCC(=O)C=C4CCC3C1CCC2O` (stereo not given), the LC retention time is 10.4 min.

In the case of `CCC(CCC(C)O)COC(=O)C(C#N)=C(c1ccccc1)c1ccccc1` (stereo not given), the LC retention time was 13.8 min.

As to `COC(=O)c1ccc(CNS(C)(=O)=O)cc1S(=O)(=O)NC(=O)Nc1nc(OC)cc(OC)n1`, the LC retention time is 10 min.

As to `CC(C)(C)NCC(O)c1cc(O)cc(O)c1` (stereo not given), the LC retention time was 4.55 min.

Turning to `CC(=O)Nc1ccc(S(=O)(=O)Nc2cc(C)on2)cc1`, the LC retention time was 7.41 min.

For `CC12CCC3c4ccc(OS(=O)(=O)O)cc4CCC3C1CCC2=O` (stereo not given), the LC retention time was 11.1 min.

With `CCCCCCCCn1sccc1=O`, the LC retention time is 11.9 min.

In the case of `c1ccc([P+](c2ccccc2)(c2ccccc2)c2ccccc2)cc1`, the LC retention time is 8.63 min.

On to `Nc1nc2c(ncn2C2OC(CO)C(O)C2O)c(=O)[nH]1` (stereo not given), for which the LC retention time was 3.15 min.

`CCCCCC[N+](CCCCCC)(CCCCCC)CCCCCC`: the LC retention time was 13.1 min.

On to `CC(C)(c1ccc(O)c([N+](=O)[O-])c1)c1ccc(O)c([N+](=O)[O-])c1`, for which the LC retention time is 13.8 min.

For `COCCOC(=O)Nc1ccc(C)c(NC(=O)OCCOC)c1`, the LC retention time was 8.32 min.

Regarding `O=C(O)c1cccc2c(=O)c3ccccc3[nH]c12`, the LC retention time is 8.82 min.

Take `CCC(C)C(N)C(=O)O` (stereo not given): the LC retention time is 2.36 min.

Regarding `CC(CC(C)(C)C)CP(=O)(O)CC(C)CC(C)(C)C` (stereo not given), the LC retention time was 14.4 min.

For the compound `CC12CCC3c4cc(O)c(O)cc4CCC3C1CCC2=O` (stereo not given), the LC retention time is 9.98 min.

On to `CSc1ccc2c(c1)N(CCC1CCCCN1C)c1ccccc1S2` (stereo not given), for which the LC retention time was 9.47 min.

As to `Cc1cc(NS(=O)(=O)c2ccc(NO)cc2)no1`, the LC retention time was 6.77 min.

Turning to `CC(C)NCC(O)COc1ccc(CCOCC2CC2)cc1` (stereo not given), the LC retention time was 7.06 min.

On to `COc1cccc(C2(O)CCCCC2CN(C)C)c1` (stereo not given), for which the LC retention time was 6.21 min.

As for `O=P(Cc1ccccc1)(c1ccccc1)c1ccccc1`, the LC retention time is 10.8 min.

Turning to `Cn1cnc2[nH]c(=O)[nH]c(=O)c21`, the LC retention time is 4.44 min.

For the compound `NC12CC3CC(CC(C3)C1)C2`, the LC retention time is 5.15 min.

Regarding `CC(C)(C)P(C(C)(C)C)C(C)(C)C`, the LC retention time was 5.22 min.

For `Cc1cc(C(C)(C)C)c(O)c(C)c1CC1=NCCN1`, the LC retention time is 7.43 min.

For `O=C(O)c1ccc(O)cc1`, the LC retention time is 5.62 min.

With `CCCC[N+](CCCC)(CCCC)CCCC`, the LC retention time is 8.91 min.

In the case of `CC(=O)Nc1c(C)n(C)n(-c2ccccc2)c1=O`, the LC retention time is 5.59 min.

With `CC(C)NCC(O)COc1ccc(CCO)cc1` (stereo not given), the LC retention time is 5.11 min.

Consider `CN(CC=CC#CC(C)(C)C(=O)O)Cc1cccc2ccccc12`, for which the LC retention time is 7.45 min.

In the case of `O=c1[nH]cnc2c1ncn2C1CC(O)C(CO)O1` (stereo not given), the LC retention time was 4.18 min.

Turning to `CC(=O)Nc1ccc(C)cc1`, the LC retention time is 7.71 min.

Take `O=c1[nH]c2c(c(=O)n1C1CCCCC1)CCC2`: the LC retention time is 9.02 min.

As for `CC12CCC(=O)C=C1CCC1C2CCC2(C)C1CCC2(C)O` (stereo not given), the LC retention time is 11.6 min.

Take `CC(C(=O)O)c1cccc(Oc2ccccc2)c1` (stereo not given): the LC retention time was 11.8 min.

With `Nc1nc2c(ncn2COC(CO)CO)c(=O)[nH]1`, the LC retention time is 2.23 min.

In the case of `COc1ccc(NC(C)=O)cc1`, the LC retention time was 6.51 min.

Turning to `COC(=O)Nc1nc2ccc(C(=O)c3ccccc3)cc2[nH]1`, the LC retention time was 8.67 min.

Consider `CC12C=CC(=O)C=C1CCC1C2C(O)CC2(C)C1CCC2(O)C(=O)CO` (stereo not given), for which the LC retention time is 8.43 min.

For the compound `COc1cc(C(=O)c2cnc(N)nc2N)cc(OC)c1OC`, the LC retention time is 5.86 min.

`O=P(O)(c1ccccc1)c1ccccc1`: the LC retention time is 7.24 min.

Turning to `CN(Cc1cnc2nc(N)nc(N)c2n1)c1ccc(C(=O)NC(CCC(=O)O)C(=O)O)cc1` (stereo not given), the LC retention time is 4.98 min.

With `COC(=O)Nc1nc2ccc(Sc3ccccc3)cc2[nH]1`, the LC retention time is 9.95 min.

`CNCC(O)c1cccc(O)c1` (stereo not given): the LC retention time is 2.73 min.

As for `CCCOP(=O)(OCCC)OCCC`, the LC retention time is 10.9 min.

`CC(=O)C[P+](c1ccccc1)(c1ccccc1)c1ccccc1`: the LC retention time is 7.28 min.

As to `COC(=O)c1cccc(O)c1`, the LC retention time is 7.88 min.

On to `C=C(C)C([O-])=NCCC[N+](C)(C)C`, for which the LC retention time is 4.7 min.

As for `CC[N+](CC)(CC)Cc1ccccc1`, the LC retention time is 5.09 min.

As for `COC(=O)C(Cc1ccccc1)NC(=O)C(N)CC(=O)O` (stereo not given), the LC retention time was 5.76 min.

For the compound `CC(=O)C1CCC2C3CCC4=CC(=O)CCC4(C)C3C(O)CC12C` (stereo not given), the LC retention time was 10.3 min.

As for `C=C(OCC)[P+](c1ccccc1)(c1ccccc1)c1ccccc1`, the LC retention time was 9.3 min.

For the compound `C=Cc1ccc(C[N+](C)(C)C)cc1`, the LC retention time is 5.4 min.

As to `S=c1[nH]c2ccccc2o1`, the LC retention time is 8.26 min.

As to `Cc1ncc(CO)c(CO)c1O`, the LC retention time is 2.11 min.

Take `CCOC(=O)C[P+](c1ccccc1)(c1ccccc1)c1ccccc1`: the LC retention time is 8 min.

Consider `CCNc1nc(NC(C)C)nc(SC)n1`, for which the LC retention time is 8.65 min.

Turning to `CN1CCC23CCCCC2C1Cc1ccc(O)cc13` (stereo not given), the LC retention time is 5.97 min.
